Source: patent publication US20160220710A1, “COMPOSITIONS AND METHODS FOR DELIVERING PHARMACEUTICAL AGENTS” (THE REGENTS OF THE UNIVERSITY OF MICHIGAN, priority 2015, published 2016)
Where two headings read alike, the source gives them in different places.

Experiments:
[1] = cited from earlier work
[2] = tested on: TLR2, TLR4, TLR9 and MyD88; experiment: Western blot of TLR2, TLR4, TLR9 and MyD88 in RAW 264.7 cells; format: cell-based, murine; details: 24 h incubation
Procedure: (§1) The murine macrophage cell line RAW 264.7 was purchased from ATCC (Manassas, Va.) and maintained in DMEM (Life Technologies, Carlsbad, Calif.) supplemented with 10% FBS. Soluble CFZ or isolated CLDIs were added at various concentrations in DMEM with 5% FBS to 6-well plates containing 4×10^5 cells/well and incubated (24 h at 37° C. and 5% CO2). Culture supernatants were harvested at 24 h, centrifuged (1500×g for 5 min), and stored (−20° C.) in frozen aliquots prior to analysis. For experiments involving TLR stimulation, cells were washed twice with pre-warmed DPBS to remove extracellular, non-phagocytosed CLDIs or CFZ, and then the cells were serum-starved for 18 h in DMEM. Supernatants were collected from unstimulated cells and cells stimulated with 200 ng/ml Pam3 or 1 μg/ml LPS in DMEM.

[3] = tested on: caspase-3 and PARP cleavage; experiment: Western blot of caspase 3, cleaved caspase 3 and cleaved PARP; format: cell-based, murine; details: 4 and 10 μM, 24 h
NF-κB (p65) = experiment: p65 nuclear translocation immunofluorescence; format: cell-based, murine
Procedure: as §1, with “Supernatants were collected from unstimulated cells and cells stimulated with 200 ng/ml Pam3 or 1 μg/ml LPS in DMEM.” left out
Brightfield and fluorescence (DAPI, FITC, Texas Red and Cy5) images were captured using the Nikon Eclipse Ti (Japan) inverted microscope equipped with a Nikon Digital Sight DS-Fi2 camera (Japan) for brightfield and Photometrics Coolsnap Myo camera (Tucson, Ariz.) for fluorescence. […] For determining the ratio of nucleus-to-cytoplasm p65 fluorescence, ImageJ was used following previously described methods (Fuseler, et al., Microsc. Microanal. 2006, 12, 269-276; Noursadeghi, M. et al., J. Immunol. Methods 2008, 329, 194-200). The average volume of CLDIs was calculated using the area, Feret max and min values of each CLDI acquired from ImageJ. […]

[4] = tested on: LPS-induced acute lung injury; experiment: LPS-induced acute lung injury; format: in vivo, mice
Procedure: Since C57BL/6 mice are relatively resistant towards a single dose of intratracheal (IT) LPS instillation (Matute-Bello G et al., 2008 Am J Physiol Lung Cell Mol Physiol 295(3):L379-99), two IT injections of LPS (16 mg/kg; 50 μl) were administered, one on day 0 and the second on day 3. Briefly, 8 wk CFZ-treated and control mice were anesthetized using intraperitoneal injections of xylazine […]. Under direct visualization of the vocal cords using an otoscope, either LPS or an equivalent volume of PBS in a 1 mL syringe attached to an oral gavage needle (22 G) was instilled into the lungs via the oral route. The mouse was then placed in a temperature-controlled cage (37° C.) for recovery from anesthesia.
The general health status of each PBS/LPS-instilled mice was monitored by measuring body weight and rectal temperature (Microprobe Thermometer, Physitemp Instruments, Clifton, N.J.), and cardiopulmonary function (arterial oxygen saturation, respiratory rate, heart rate and pulse distention) was monitored using MouseOx with a collar clip sensor (Starr Life Sciences Corp, Oakmont, Pa.) as previously described (Lax S et al., (2014) BMJ open Respir Res 1(1):e000014; Nayak S, et al. (2014) PLoS One 9(6):e98336). In brief, one day before IT instillations (D-1) the hair around the neck of each mouse was removed using Nair (Church & Dwight, Princeton, N.J.) to enable data acquisition using the collar clip sensor. The next day (D 0), immediately prior to the first LPS/PBS dose, and every 24 h afterwards until day 6 (D 6), the body weight, temperature and MouseOx readings were recorded. MouseOx data was acquired by very brief anesthesia of the mouse using 5% isoflurane to facilitate the placement of the collar clip sensor. The mouse was then placed in an enclosed chamber with ambient light and allowed to acclimatize for 5 min at which point the animals had recovered normal activities and physiological readings. Arterial oxygen saturation, breath rate, heart rate and pulse distention measurements were then simultaneously recorded for 6 min (15 readings/sec), and any errors caused by motion during recording were excluded, after which the mean value of each parameter was used for further data analysis.
To objectively assess LPS-induced mortality, a multi-parametric scoring system that relied on the daily changes in vital signs associated with inflammatory injury progression and mortality which included arterial oxygen saturation was used (Lax et al., 2014, supra), body weight and temperature (Toth L A (2000) ILAR J 41(2):72-79; Nemzek et al., (2004) Humane endpoints in shock research. Shock 21(1):17-25). First, the percent change from baseline (D 0) in arterial oxygen saturation, body weight, and temperature in each mouse caused by IT instillation of PBS/LPS were measured and calculated daily until day 6 post-instillation. […] These mice were immediately euthanized with ketamine/xylazine and the bronchoalveolar lavage (BAL) and lungs were harvested for cellular and biochemical analysis (see below).
PBS/LPS-instilled CFZ- or control mice were euthanized by exsanguination while deeply anesthetized with an intraperitoneal injection of ketamine/xylazine. The trachea was surgically exposed and cannulated with an 18 G needle and the lungs were lavaged by instilling 1 ml DPBS (Life Technologies) containing 0.5 mM EDTA (Sigma). The retrieved BAL was then centrifuged (10 min at 400×g, 4° C.), and the supernatant was frozen (−80° C.), while the cell pellets were resuspended in 1 ml RPMI 1640 media (Life Technologies). To count total cells, the cells were stained with Trypan blue and counted using a hemocytometer. To distinguish cell types, an aliquot of the cells were dried on glass slides and stained with Diff Stain kit (IMEB Inc, San Marcos, Calif.) according to the manufacturer's instructions. […]

Question: For `CC(C)/N=c1\cc2n(-c3ccc(Cl)cc3)c3ccccc3nc-2cc1Nc1ccc(Cl)cc1` [CFZ, 3-(p-chloroanilino)-10-(p-chlorophenyl)-2, 10-dihydro-2-isopropyliminophenazine], which half-life ([1]; after an acute dose, oral) is on record?
Answer: The half-life was “in the order of hours to days”.

Question: And the half-life ([1]; upon prolonged oral administration)?
Answer: Its half-life is “in the order of weeks to months”.

Question: And the “TLR2 and TLR4 expression” value [2]?
Answer: The value was “upregulated TLR2 and TLR4 expression”.

Question: And the PARP cleavage [3]?
Answer: The PARP cleavage was “increased PARP cleavage”.

Question: And the p65 nuclear translocation (NF-κB (p65); LPS stimulation, 3 h, 4 μM soluble CFZ or 40 μM CLDI)?
Answer: The p65 nuclear translocation was “reduced p65 translocation in response to LPS”.

Question: What about the p65 nuclear translocation (NF-κB (p65); naïve, no stimulation) of the same molecule?
Answer: Its p65 nuclear translocation is “did not induce nuclear translocation of p65”.

Question: And the survival rate ([4]; 8 wk CFZ-treated, two IT LPS 16 mg/kg)?
Answer: Its survival rate is 92%.

Question: And the “TNFα and IL-1RA expression” value ([4]; after LPS)?
Answer: The value was “reduced TNFα and IL-1RA expression after LPS”.

Question: And the “arterial oxygen levels vs control mice” value ([4]; after LPS)?
Answer: The value was “significantly higher arterial oxygen levels at day 5 and day 6”.

Question: What about the “cell count in bronchioalveolar lavage (BAL)” value ([4]; after LPS) of the same molecule?
Answer: Its value is “significantly less cell count in bronchioalveolar lavage”.

Question: And the “number of mice losing more than 15% weight” value ([4]; after LPS)?
Answer: Its value is 1.

Question: What about the “lung injury vs control mice” value ([4]; after LPS instillation) of the same molecule?
Answer: Its value is “notably less lung injury”.

Question: What about the “body temperature drop vs control mice” value ([4]; after second LPS injection (day 4)) of the same molecule?
Answer: Its value is “more resistant to temperature drop after the second injection”.

Question: What about the “heart rate, breathing rate and pulse distention vs control mice” value ([4]; after the second LPS injection) of the same molecule?
Answer: Its value is “less reduction in heart rate, breathing rate and pulse distention”.
